Experimental data reported in patent publication US7166622B2, “Substituted phenylsulfonamide inhibitors of beta amyloid production” (Wyeth, priority 2002, dated 2007).
Several values for one entry are separate records, joined by “and”; a condition that tells them apart may be missing. Equal values may be shown once.

Columns and labels:
[1] = system: beta amyloid production; test: Repressor Release Assay (RRA); type: cell-based; details: for APPI % of Example #98: relative to Example 98; for fold induction at 20 µg/mL: read-out: APPI Fold Increase
Protocol: CHO-K1 cells were cultured in whole DMEM media (DMEM—High Glucose with 10% fetal bovine serum, 1% Non-essential Amino Acids, and 1% Penicillin-Streptomycin) at 37° C. with 5% CO2. Two million cells were plated into 10-cm dishes 24 hrs prior to transfection.
Transient transfections were completed as recommended by Gibco BRL using their Lipofectamine Plus system. First, 6 μg of pRSVO-luc and 6 μg of APP-lacI construct DNA were added to 460 μL Opti-Mem transfection media and incubated with 30 μL Plus reagent for 15 minutes. Then, a lipid mixture of 40 μL Lipofectamine reagent and 460 μL Opti-Mem transfection media was incubated with the DNA-Plus reagent mixture for 15 minutes. During the DNA-lipid incubation, the CHO-K1 cells were washed once and covered in 5.0 mL DMEM media without Penicillin-Streptomycin. The DNA-lipid preparation was then layered onto these cells and incubated at 37° C. overnight.
[…] transfected cells per well (100 μL total volume) were plated into sterile, opaque Packard 96-well Culture-Plates in clear DMEM whole media (DMEM—without phenol red) and incubated at 37° C. with 5% CO2 for 3-5 hours.
Compounds were diluted using two different protocols; one protocol was used for compounds supplied neat (weighed powder in vial) and the other protocol was used for compounds supplied in solution (20 mM in DMSO in 96-well plates). For both protocols, 25 mM Hepes and 25 mM Hepes/1% DMSO were prepared fresh to be used as diluent. The Hepes/DMSO was used as the diluent control on all experimental plates.
The following table depicts the steps for compound dilution (please note that the last step was the addition of compound to cells/media in tissue culture plate).
Because some compounds were present in 96-well format at 20 mM, the following represents the protocol for their dilution (note that an average molecular weight of these compounds was used to calculate these dilutions and as above, the last step was the addition of compound to cells/media in tissue culture plate).
Once the compounds were diluted, they were applied in duplicate on cells in tissue culture plates (prepared above). Cells were incubated with compound at 37° C. with 5% CO2 for an additional 36-48 hours.
Luciferase assays (LucLite reagent, Packard) were performed and were read on a Packard TopCount instrument. Media was removed from each 96-well plate and replaced with 100 μL PBS per well (with Mg^2+ and Ca^2+). An equal volume (100 μL) of the LucLite lysis/substrate buffer was added to each well and the plates were sealed and mixed in the dark on a rotary shaker for 15-30 minutes at room temperature. Luciferase readings were then taken on the TopCount instrument. Measurements were expressed as relative light units (RLU) and are calculated and analyzed in MS Excel as follows: […]

[2] = system: CHO-K1 cells; test: Toxicity in RRA (loss of luciferase signal); details: toxicity = loss of signal (<0.75 fold increase)
Protocol: The beta amyloid inhibitory activity of the compounds of the present invention was determined using the Repressor Release Assay (RRA).
“Fold Increase” refers to the amount of luciferase activity (measured in relative light units) over diluent control. “SEM” refers to the standard error of the mean for fold increase.

[3] = Conc 20 μg/ml, luciferase activity over diluent control
[4] = Conc 10 μg/ml, luciferase activity over diluent control

## 2-fluoro-N-[(1S)-1-(hydroxy 1-methylethyl]benzenesulfonamide [Example 117]
[1]; [3]
  APPI Fold Increase: 1.5 fold
[1]; Conc 20 μg/ml
  APPI % of Example #98: 31%
[2]; Conc 20 μg/ml
  (%)APPI Toxicity: 1 (1=non-toxic)

## 3,4-dibromo-N-[(11S)-1-(hydroxymethyl)-2,2-dimethylpropyl]benzenesulfonamide [Example 29]
[1]; [3]
  APPI Fold Increase: 2.1 fold
[1]; Conc 20 μg/ml
  APPI % of Example #98: 49.5%
[2]; Conc 20 μg/ml
  (%)APPI Toxicity: 1 (1=non-toxic)

## 3-chloro-N-{(1S)-2-hydroxy-2-isopropenyl-3-methyl-1-[(18)-1-methylpropyl]-3-butenyl}benzenesulfonamide [Example 257]
[1]; [4]
  APPI Fold Increase: 2.54 fold
[1]; Conc 10 μg/ml
  APPI % of Example #98: 94.5%
[1]; [3]
  APPI Fold Increase: 2.5 fold
[1]; Conc 20 μg/ml
  APPI % of Example #98: 68.8%
[2]; Conc 10 μg/ml
  (%)APPI Toxicity: 1 (1=non-toxic)
[2]; Conc 20 μg/ml
  (%)APPI Toxicity: 1 (1=non-toxic)

## 3-chloro-N-{(1S,3E)-2-hydroxy-3-methyl-2-[(1 F)-1-methyl-1-propenyl]-1-[(1S)-1-methylpropyl]-3-pentenyl}benzenesulfonamide [Example 259]
[1]; Conc 0.3 μg/ml, luciferase activity over diluent control
  APPI Fold Increase: 1.7 fold
[1]; Conc 0.3 μg/ml
  APPI % of Example #98: 31.1%
[1]; Conc 1 μg/ml, luciferase activity over diluent control
  APPI Fold Increase: 1.7 fold
[1]; Conc 1 μg/ml
  APPI % of Example #98: 31.1%
[1]; Conc 3 μg/ml, luciferase activity over diluent control
  APPI Fold Increase: 1.7 fold
[1]; Conc 3 μg/ml
  APPI % of Example #98: 31.5%
[1]; [4]
  APPI Fold Increase: 2.19 fold and 1.6 fold and 1.7 fold
[1]; [3]
  APPI Fold Increase: 4.4 fold
[1]; Conc 20 μg/ml
  APPI % of Example #98: 119.7%
[2]; Conc 0.3 μg/ml
  (%)APPI Toxicity: 1 (1=non-toxic)
[2]; Conc 1 μg/ml
  (%)APPI Toxicity: 1 (1=non-toxic)
[2]; Conc 3 μg/ml
  (%)APPI Toxicity: 1 (1=non-toxic)
[2]; Conc 10 μg/ml
  (%)APPI Toxicity: 1 (1=non-toxic)
[2]; Conc 20 μg/ml
  (%)APPI Toxicity: 1 (1=non-toxic)

## 4-bromo-N-((1S,2 S)-1-{hydroxy-[4-(methylsulfanyl)phenyl]methyl}-2-methylbutyl) benzenesulfonamide [Example 163]
[1]; [4]
  APPI Fold Increase: 1.64 fold
[1]; Conc 10 μg/ml
  APPI % of Example #98: 69.41%
[2]; Conc 10 μg/ml
  (%)APPI Toxicity: 1 (1=non-toxic)

## C[C@H](NC(=O)Cc1cc(F)cc(F)c1)C(=O)N[C@H](C(=O)OC(C)(C)C)c1ccccc1 [DAPT, reference compound]
[1]; at 10 μg/mL, luciferase activity over diluent control, transfected CHO-K1 cells
  fold increase in luciferase activity: 6.0-28.1 fold increase

## CC[C@H](C)[C@@H](CO)NS(=O)(=O)c1ccccc1Br [Example 1, 2-Bromo-N-[(1S,2S)-1-(hydroxymethyl)-2-methylbutyl]benzenesulfonamide]
[1]; [3]
  fold induction at 20 µg/mL: 1.6
[2]; Conc 20 μg/ml
  (%)APPI Toxicity: 1 (1=non-toxic)

## CC[C@H](C)[C@@H](CO)NS(=O)(=O)c1cccc(Br)c1 [Example 2, 3-bromo-N-[(1S,2S)-1-(hydroxymethyl)-2-methylbutyl]benzenesulfonamide]
[1]; [3]
  fold induction at 20 µg/mL: 2.8
[2]; Conc 20 μg/ml
  (%)APPI Toxicity: 1 (1=non-toxic)

## CC[C@H](C)[C@@H](CO)NS(=O)(=O)c1cccc(Cl)c1 [Example 3, 3-chloro-N-[(1S,2S)-1-(hydroxymethyl)-2-methylbutyl]benzenesulfonamide]
[1]; [3]
  fold induction at 20 µg/mL: 3.6
[2]; Conc 20 μg/ml
  (%)APPI Toxicity: 1 (1=non-toxic)

## CC[C@H](C)[C@@H](CO)NS(=O)(=O)c1ccc(Cl)c2nnoc12 [Example 4, 4-chloro-N-[(1S,2S)-1-(hydroxymethyl)-2-methylbutyl]-1,2,3-benzoxadiazole-7-sulfonamide]
[1]; [3]
  fold induction at 20 µg/mL: 1.5
[2]; Conc 20 μg/ml
  (%)APPI Toxicity: 1 (1=non-toxic)

## CC[C@H](C)[C@@H](CO)NS(=O)(=O)c1ccc(F)cc1Cl [Example 5, 2-chloro-4-fluoro-N-[(1S,2S)-1-(hydroxymethyl)-2-methylbutyl]benzenesulfonamide]
[1]; [3]
  fold induction at 20 µg/mL: 2.5
[2]; Conc 20 μg/ml
  (%)APPI Toxicity: 1 (1=non-toxic)

## CC[C@H](C)[C@@H](CO)NS(=O)(=O)c1cc(Cl)ccc1OC [Example 6, 5-chloro-N-[(1S,2S)-1-(hydroxymethyl)-2-methylbutyl]-2-methoxybenzenesulfonamide]
[1]; [3]
  fold induction at 20 µg/mL: 1.7
[2]; Conc 20 μg/ml
  (%)APPI Toxicity: 1 (1=non-toxic)

## CC[C@H](C)[C@@H](CO)N(CCNC(=O)OC(C)(C)C)S(=O)(=O)c1ccc(Cl)cc1 [Example 42, tert-butyl 2-{([4-chlorophenyl)sulfonyl][(1S,2S)-1-(hydroxymethyl)-2-methylbutyl]amino} ethyl carbamate]
[1]; [3]
  APPI Fold Increase: 1.9 fold
[1]; Conc 20 μg/ml
  APPI % of Example #98: 71.7%

## CCCCCCC(O)[C@@H](NS(=O)(=O)c1ccc(F)cc1)[C@@H](C)CC (stereo partly drawn) [Example 128, 4-fluoro-N-{(1S)-2-hydroxy-1-[(1S)-1-methylpropyl]octyl}benzenesulfonamide]
[2]; Conc 10 μg/ml
  (%)APPI Toxicity: 1 (1=non-toxic)

## CCCCCC(O)[C@@H](NS(=O)(=O)c1ccc(F)cc1)[C@@H](C)CC (stereo partly drawn) [Example 129, 4-fluoro-N-{(1S)-2-hydroxy-1-[(1S)-1-methylpropyl]heptyl}benzenesulfonamide]
[2]; Conc 10 μg/ml
  (%)APPI Toxicity: 1 (1=non-toxic)

## CC[C@H](C)[C@H](NS(=O)(=O)c1ccc(Br)cc1)C(O)C(C)(C)C (stereo partly drawn) [Example 149, 4-bromo-N-{(1S)-2-hydroxy-3,3-dimethyl-1-[(1S)-1-methylpropyl]butyl}benzenesulfonamide]
[2]; Conc 10 μg/ml
  (%)APPI Toxicity: 1 (1=non-toxic)

## CC[C@H](C)[C@H](NS(=O)(=O)c1ccc(Br)cc1)C(O)CC(C)C (stereo partly drawn) [Example 150, 4-bromo-N-{(S)-2-hydroxy-4-methyl-1-[(1S)-1-methylpropyl]pentyl}benzenesulfonamide]
[2]; Conc 10 μg/ml
  (%)APPI Toxicity: 1 (1=non-toxic)

## CC[C@H](C)[C@H](NS(=O)(=O)c1ccc(Cl)cc1)C(O)C1CCCC1 (stereo partly drawn) [Example 166, 4-chloro-N-{(1S,2S)-1-[cyclopentyl(hydroxy)methyl]-2-methylbutyl}benzenesulfonamide]
[2]; Conc 10 μg/ml
  (%)APPI Toxicity: 1 (1=non-toxic)

## CCCCCC(O)[C@@H](NS(=O)(=O)c1ccc(Cl)cc1)[C@@H](C)CC (stereo partly drawn) [Example 168, 4-chloro-N-{(1S)-2-hydroxy-1-[(1S)-1-methylpropyl]heptyl}benzenesulfonamide]
[2]; Conc 10 μg/ml
  (%)APPI Toxicity: 1 (1=non-toxic)

## C=CCC(O)[C@@H](NS(=O)(=O)c1ccc(Cl)cc1)[C@@H](C)CC (stereo partly drawn) [Example 175, 4-chloro-N-{(1S)-2-hydroxy-1-[(1S)-1-methylpropyl]-4-pentenyl}benzenesulfonamide]
[2]; Conc 10 μg/ml
  (%)APPI Toxicity: 1 (1=non-toxic)

## CC[C@H](C)[C@H](NS(=O)(=O)c1ccccc1F)C(O)C1CCCC1 (stereo partly drawn) [Example 202]
[1]; [4]
  APPI Fold Increase: 1.62 fold
[1]; Conc 10 μg/ml
  APPI % of Example #98: 55.79%

## CCCCCC(O)(CCCCC)[C@@H](NS(=O)(=O)c1ccc(Br)cc1)[C@@H](C)CC [Example 212, 4-bromo-N-{(1S)-2-hydroxy-1-[(1S)-1-methylpropyl]-2-pentylheptyl}benzenesulfonamide]
[2]; Conc 10 μg/ml
  (%)APPI Toxicity: 1 (1=non-toxic)

## CC[C@H](C)[C@H](NS(=O)(=O)c1ccc(Br)cc1)C(O)(CC(C)C)CC(C)C [Example 214, 4-bromo-N-{(1S)-2-hydroxy-2-isobutyl-4-methyl-1-[(1S)-1-methylpropyl]pentyl} benzenesulfonamide]
[2]; Conc 10 μg/ml
  (%)APPI Toxicity: 1 (1=non-toxic)

## CCCCCCC(O)(CCCCCC)[C@@H](NS(=O)(=O)c1ccc(F)cc1)[C@@H](C)CC [Example 236, 4-fluoro-N-{(1S)-2-hexyl-2-hydroxy-1-[(1S)-1-methylpropyl]octyl}benzenesulfonamide]
[2]; Conc 10 μg/ml
  (%)APPI Toxicity: 1 (1=non-toxic)

## CC[C@H](C)[C@H](NS(=O)(=O)c1ccc(F)cc1)C(O)(c1cccc2ccccc12)c1cccc2ccccc12 [Example 248, 4-fluoro-N-((1S,2S)-1-{hydroxy[di(1-naphthyl)]methyl}-2-methylbutyl)benzenesulfonamide]
[2]; Conc 10 μg/ml
  (%)APPI Toxicity: 1 (1=non-toxic)
